# Data taken from PubChem BioAssay (NCI).
#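 A five-concentration, 48-hour dose response in 96-well plates underlies each endpoint, interpolated linearly between surrounding concentrations. TGI denotes the concentration required for complete inhibition of growth.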
# How the values were obtained:
# Assay in all cases: DTP human tumour cell line panel, 48 h
# OVCAR-3 ovarian = test system: OVCAR-3 ovarian
# TK-10 renal = test system: TK-10 renal
# SN12C renal = test system: SN12C renal
# UACC-62 melanoma = test system: UACC-62 melanoma
# SNB-75 CNS = test system: SNB-75 CNS
# SF-539 CNS = test system: SF-539 CNS
# OVCAR-8 ovarian = test system: OVCAR-8 ovarian
# SK-OV-3 ovarian = test system: SK-OV-3 ovarian
# NCI-H226 lung = test system: NCI-H226 lung
# A498 renal = test system: A498 renal
# SF-295 CNS = test system: SF-295 CNS
# PC-3 prostate = test system: PC-3 prostate
# MCF7 breast = test system: MCF7 breast
Compound,TGI (OVCAR-3 ovarian) [µM],TGI (TK-10 renal) [µM],TGI (SN12C renal) [µM],TGI (UACC-62 melanoma) [µM],TGI (SNB-75 CNS) [µM],TGI (SF-539 CNS) [µM],TGI (OVCAR-8 ovarian) [µM],TGI (SK-OV-3 ovarian) [µM],TGI (NCI-H226 lung) [µM],TGI (A498 renal) [µM],TGI (SF-295 CNS) [µM],TGI (PC-3 prostate) [µM],TGI (MCF7 breast) [µM]
COc1ccccc1NC(=O)CC(=O)N1N=C(c2ccccc2)C(N=Nc2ccc(Cl)cc2)C1=O (stereo unspecified),74.3,52.3,> 100,89.7,55,> 100,> 100,51.8,> 100,35.2,70.3,–,–
O=C(NCCCN(CCCCN(CCCNC(=O)c1cc(S(=O)(=O)O)cc(O)c1O)C(=O)c1cc(S(=O)(=O)O)cc(O)c1O)C(=O)c1cc(S(=O)(=O)O)cc(O)c1O)c1cc(S(=O)(=O)O)cc(O)c1O,–,> 100,> 100,> 100,> 100,–,> 100,–,> 100,> 100,–,> 100,–
CCOC(=O)/C(=C\NC(C)(C)CO)c1nc2ccccc2[nH]1,> 100,> 100,> 100,> 100,> 100,> 100,> 100,> 100,–,> 100,> 100,–,> 100
CC(=O)NNc1nc(C)c(C(=O)/C=C/c2ccc(Cl)c(Cl)c2)s1,> 100,> 100,> 100,> 100,> 100,> 100,> 100,> 100,–,> 100,> 100,–,–
O=c1[nH]c(=O)n(CCOc2ccc(Cl)cc2)cc1Nc1ccccc1,> 100,–,> 100,> 100,–,–,–,–,–,> 100,> 100,> 100,> 100
COc1cc(/C=C2\N=C(c3ccccc3)N(c3nc4ccc(Sc5ccccc5)cc4[nH]3)C2=O)cc(OC)c1OC,> 100,57.4,92.4,38.7,> 100,–,> 100,> 100,–,71.8,90.1,> 100,45.9
C/C(=N/O)c1sc(-c2nc(C)c(/C(C)=N\O)s2)nc1C,> 100,–,> 100,> 100,> 100,> 100,> 100,> 100,> 100,> 100,> 100,–,–
CCOC(=O)C(NC(=O)CC)(Nc1ccc(F)cc1F)C(F)(F)F (stereo unspecified),–,> 100,> 100,–,> 100,> 100,> 100,> 100,–,> 100,–,> 100,–
NC(N)=NS(=O)(=O)c1ccc(NC(=O)c2cccc3c(N)c4ccccc4nc23)cc1,> 100,> 100,> 100,> 100,> 100,> 100,> 100,> 100,> 100,> 100,> 100,–,–
CCCCCCCCCCCCC(Br)C(C)=O (stereo unspecified),> 100,> 100,> 100,> 100,–,> 100,> 100,> 100,> 100,> 100,> 100,–,–
O=c1[nH]c2c(c(=O)[nH]1)C(c1ccc([N+](=O)[O-])cc1)c1c([nH]c(=O)[nH]c1=O)O2,> 100,> 100,> 100,> 100,–,–,> 100,> 100,> 100,> 100,> 100,> 100,–
O=C(Cc1nc2ccc([N+](=O)[O-])cc2[nH]c1=O)C(=O)Nc1ccccc1[N+](=O)[O-],> 100,> 100,–,> 100,> 100,> 100,–,> 100,> 100,> 100,> 100,–,–
CC(C)C(Sc1nc(-c2ccccc2)c(-c2ccccc2)[nH]1)c1n[nH]c(=S)n1-c1ccccc1 (stereo unspecified),45.9,> 100,> 100,25.3,> 100,40.4,> 100,> 100,> 100,> 100,57.3,–,–
COC(=O)C(=O)C(/C(=N/N)C(=O)Nc1ccccc1C(N)=O)c1nc2ccc([N+](=O)[O-])cc2[nH]c1=O (stereo unspecified),> 100,> 100,> 100,> 100,–,> 100,> 100,–,> 100,> 100,> 100,–,–
Cc1ccc(C(=O)N/N=C(\N=Nc2ccccc2Cl)c2ccc(N(C)C)cc2)cc1,> 100,> 100,> 100,17.8,–,> 100,> 100,> 100,> 100,–,> 100,> 100,> 100
O=C(O)CCN(CCCN(CCC(=O)O)CCC(=O)O)CCC(=O)O,> 100,> 100,> 100,> 100,> 100,> 100,> 100,> 100,–,> 100,> 100,–,–
Nc1cc(Cl)ccc1SSc1ccc(Cl)cc1N,–,40.8,28.7,12.7,37.6,31.5,> 100,> 100,15.4,–,25.6,48.4,15.7
CC1=C(C(=O)CC(=O)C(=O)Nc2ccc(C)c(C)c2)Sc2ccccc2N1,> 100,> 100,> 100,> 100,> 100,> 100,> 100,> 100,> 100,> 100,> 100,–,–
O=C1CS(=O)(=O)C(c2cccc(Oc3ccccc3)c2)N1C1CC1 (stereo unspecified),> 100,> 100,> 100,> 100,80.7,> 100,> 100,67.7,83.6,–,> 100,66.2,58
Cc1ccccc1Nc1nc(NNC(=O)Cc2ccccc2)nc(NNC(=O)c2ccncc2)n1,–,> 10,> 10,> 10,> 10,> 10,> 10,> 10,–,–,–,–,> 10

Compound,TGI (OVCAR-3 ovarian) [µM],TGI (TK-10 renal) [µM],TGI (SN12C renal) [µM],TGI (UACC-62 melanoma) [µM],TGI (SNB-75 CNS) [µM],TGI (SF-539 CNS) [µM],TGI (OVCAR-8 ovarian) [µM],TGI (SK-OV-3 ovarian) [µM],TGI (NCI-H226 lung) [µM],TGI (A498 renal) [µM],TGI (SF-295 CNS) [µM],TGI (PC-3 prostate) [µM],TGI (MCF7 breast) [µM]
CCCCC1(O)CC2CC1C(C)C2(C)C (stereo unspecified),> 100,> 100,> 100,> 100,> 100,> 100,> 100,> 100,> 100,–,> 100,> 100,> 100
COc1ccc2c(c1OC)C(=O)N/C2=C\c1c(CCN(C)C)cc2c(c1OC)OCO2,> 100,> 100,> 100,–,> 100,> 100,> 100,> 100,> 100,–,> 100,> 100,> 100
CCOC(=O)c1sc2nc1CSc1sc(=S)sc1SCc1nc(sc1C(=O)OCC)-c1nc(c(C(=O)OCC)s1)CSc1sc(=S)sc1SCc1nc-2sc1C(=O)OCC,> 10,> 10,> 10,> 10,> 10,> 10,> 10,> 10,–,–,> 10,> 10,> 10
NC(CCCCNCc1ccccc1)C(=O)O (stereo unspecified),> 100,> 100,> 100,> 100,> 100,> 100,> 100,> 100,> 100,> 100,> 100,–,–
O=C(O)c1ccc([C@@H]2C(=O)N(O)[C@@H]3C=CC[C@@H]32)cc1,> 100,> 100,> 100,> 100,> 100,> 100,> 100,> 100,> 100,–,> 100,–,–
COc1ccc(/C=C2\CCC(CCN3CCOCC3)C2=O)cc1 (stereo unspecified),> 100,> 100,> 100,> 100,> 100,> 100,> 100,–,> 100,> 100,> 100,–,–
CCN(CC)Cc1cc(Nc2ccnc3ccc4nn(C)nc4c23)ccc1O,68,75.6,86,27.4,26.1,26.5,50.7,57.7,41.7,–,29.1,–,–
CC1=CC(=O)N(n2c(-c3ccccc3)n[nH]c2=O)C1=O,> 100,> 100,> 100,> 100,> 100,> 100,> 100,> 100,> 100,–,> 100,> 100,> 100
O=C(O)C12CCC(CC1=O)C2 (stereo unspecified),> 100,> 100,> 100,> 100,> 100,–,> 100,> 100,> 100,–,> 100,> 100,> 100
Cc1cc(S(=O)(=O)NC(=NCCc2ccccc2)NN)c(S)cc1Cl,74.8,> 100,> 100,40,69.7,51.3,35.2,53.7,66.3,–,–,> 100,> 100
COc1cc(CNc2cnc3ccc(N)cc3n2)cc(OC)c1OC,> 100,> 100,> 100,> 100,> 100,> 100,> 100,> 100,> 100,> 100,> 100,–,–
C=CC1(c2ccc3ccccc3c2)OCC(CC)O1 (stereo unspecified),> 100,> 100,> 100,88.3,> 100,–,> 100,> 100,81.4,–,> 100,> 100,> 100
COc1ccc(/C=C/C(=O)c2sc(-c3cccnc3)nc2C)cc1,88.3,> 100,> 100,> 100,> 100,65,> 100,> 100,> 100,> 100,> 100,–,–
COC(=O)C(c1ccc(OC)cc1)N1C(=O)[C@@H](NC(=O)c2ccccc2)[C@H]1[C@@H](C)O (stereo partly specified),> 100,> 100,> 100,> 100,> 100,> 100,> 100,> 100,> 100,–,> 100,–,–
S=C1CC(c2ccccc2)Sc2cc(Cl)ccc2N1 (stereo unspecified),8.49,38.9,> 100,44.9,20.8,–,31.3,19.9,32.7,–,12.6,> 100,34.8
Cc1nc2c3c(ccc2[nH]c1=O)C(=O)c1ccccc1C3=O,> 100,> 100,> 100,> 100,87,> 100,> 100,> 100,> 100,> 100,> 100,–,–
Cc1cc2c(cc1Cl)SC(NNC1=NCCN1)=NS2(=O)=O,> 10,> 10,> 10,> 10,> 10,> 10,> 10,> 10,> 10,> 10,> 10,> 10,–
CCOC(=O)N/N=C(\CC)OCC,> 100,> 100,> 100,> 100,> 100,> 100,> 100,> 100,–,–,> 100,> 100,> 100
CC(C)OP(=O)(OC(C)C)C(=NCCN=C(NNc1ccccc1[N+](=O)[O-])P(=O)(OC(C)C)OC(C)C)NNc1ccccc1[N+](=O)[O-],> 100,> 100,> 100,40.6,> 100,> 100,> 100,–,67.4,> 100,–,–,–
Cc1ccc(-c2nnc3s/c(=C\c4ccc(N(C)C)cc4)c(=O)n23)cc1,> 100,> 100,> 100,> 100,> 100,> 100,> 100,> 100,> 100,> 100,> 100,–,–
